According to patent publication US11912701B2, “Protein kinase inhibitors for promoting liver regeneration or reducing or preventing hepatocyte death” (HEPAREGENIX GMBH, priority 2018, dated 2024):
pIC50: −log10 of the molar value. Like-named read-outs stand apart in the source and are kept apart here.

Tests used:
[1] = target: T1, MKK4 (Homo sapiens, UniProt P45985); assay: KINOMEscan competition binding assay, MKK4; details: residual percent of control binding (PoC) at 100 nM
T1 construct: S84/D399; host or cells: HEK-293
T1 sequence (P45985 84-399): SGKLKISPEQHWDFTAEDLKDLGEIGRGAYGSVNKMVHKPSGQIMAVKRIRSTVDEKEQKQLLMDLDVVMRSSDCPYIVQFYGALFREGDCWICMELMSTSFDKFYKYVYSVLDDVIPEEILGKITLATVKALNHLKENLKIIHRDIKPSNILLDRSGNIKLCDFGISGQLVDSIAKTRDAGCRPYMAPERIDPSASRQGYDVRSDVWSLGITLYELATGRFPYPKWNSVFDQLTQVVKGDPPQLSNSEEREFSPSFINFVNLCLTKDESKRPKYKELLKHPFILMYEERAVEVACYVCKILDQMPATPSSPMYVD
How it was run: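 KINOMEscan competition of compound versus immobilized ligand for DNA-tagged MKK4 expressed in HEK-293 cells. Bound kinase was quantified by qPCR after elution.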

[2] = target: T2, MKK7 (Homo sapiens, UniProt O14733); assay: KINOMEscan competition binding assay, MKK7; set-up: M1/R419; host or cells: HEK-293; details: ratio PoC (off-target)/PoC (MKK4)
T2 sequence (O14733 1-419): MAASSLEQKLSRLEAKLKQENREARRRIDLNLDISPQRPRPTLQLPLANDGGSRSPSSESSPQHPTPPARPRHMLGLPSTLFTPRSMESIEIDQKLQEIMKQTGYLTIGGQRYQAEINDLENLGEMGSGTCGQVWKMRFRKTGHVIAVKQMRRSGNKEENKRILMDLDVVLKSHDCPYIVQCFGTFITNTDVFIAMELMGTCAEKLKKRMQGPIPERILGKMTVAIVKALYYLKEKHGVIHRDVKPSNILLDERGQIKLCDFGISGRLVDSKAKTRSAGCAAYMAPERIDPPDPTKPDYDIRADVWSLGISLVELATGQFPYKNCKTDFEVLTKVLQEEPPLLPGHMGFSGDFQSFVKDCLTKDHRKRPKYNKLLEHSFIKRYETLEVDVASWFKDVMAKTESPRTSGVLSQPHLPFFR
Experimental: (§1) The assay was performed by combining three components: DNA-tagged kinase; immobilized ligand; and a test compound. The ability of the test compound to compete with the immobilized ligand was measured via quantitative PCR of the DNA tag. The technology is described in detail in Fabian, M. A. et al. A small molecule-kinase interaction map for clinical kinase inhibitors. Nat. […] Nat.
(§2) For investigation of the affinity to MKK4, BRaf, MKK7 and JNK1, the kinases were produced in HEK-293 cells and subsequently tagged with DNA for qPCR detection. […] The liganded beads were blocked with excess biotin and washed with blocking buffer (SEABLOCK™ (Pierce), 1% BSA, 0.05% TWEEN®20, 1 mM DTT) to remove unbound ligand and to reduce nonspecific binding. […] All reactions were performed in polystyrene 96-well plates in a final volume of 0.135 mL. […] The kinase concentration in the eluates was measured by qPCR.
(§3) The test compounds were provided as 10 mM stock solutions. The test solutions at indicated final concentrations were prepared at DiscoverX.
(§4) Potency of representative examples against the protein kinases MKK4, BRaf, MKK7 and JNK1 expressed as residual percent of control binding (PoC), was determined at a concentration of 100 nM. The determined potencies are categorized as follows:
(§5) The binding selectivity of representative examples against the protein kinases BRaf, MKK7 and JNK1, altogether denominated as “off-targets” is determined by the ratios of PoC (off-target)/PoC (MKK4).

[3] = target: T3, JNK1 (Homo sapiens, UniProt P45983); assay: 33PanQinase enzyme assay, JNK1; format: biochemical; set-up: purchased ProQinase GmbH, Freiburg, Germany (33PanQinase Assay Service); details: ratio IC50(JNK1)/IC50(MKK4)
How it was run: (§6)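 Radiometric 33PanQinase format: kinase with substrate, ATP and compound (added in 10% DMSO stock) incubated 60 min at 30° C, stopped with 2% H3PO4, ^33Pi incorporation counted by scintillation. Single-concentration data given as % residual activity; IC50 by least-squares fit, with selectivity as IC50(off-target)/IC50(MKK4).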
Target sequence in this assay (P45983 whole entry): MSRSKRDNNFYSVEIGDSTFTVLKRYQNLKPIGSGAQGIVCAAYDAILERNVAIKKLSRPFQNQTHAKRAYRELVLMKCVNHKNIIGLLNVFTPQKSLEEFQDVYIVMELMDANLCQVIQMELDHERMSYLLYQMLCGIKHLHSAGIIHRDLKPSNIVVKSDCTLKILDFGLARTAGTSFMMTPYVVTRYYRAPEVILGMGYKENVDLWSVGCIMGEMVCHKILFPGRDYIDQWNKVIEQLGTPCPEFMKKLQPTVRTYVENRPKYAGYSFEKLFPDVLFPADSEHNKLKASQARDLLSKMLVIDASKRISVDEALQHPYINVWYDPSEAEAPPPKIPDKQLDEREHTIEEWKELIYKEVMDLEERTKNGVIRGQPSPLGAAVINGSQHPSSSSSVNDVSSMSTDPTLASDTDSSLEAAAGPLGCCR

[4] = target: T2, MKK7; assay: 33PanQinase enzyme assay, MKK7; format: biochemical; set-up: purchased ProQinase GmbH, Freiburg, Germany (33PanQinase Assay Service); details: ratio IC50(MKK7)/IC50(MKK4)
How it was run: as §6

[5] = target: T3, JNK1; assay: KINOMEscan competition binding assay, JNK1; set-up: M1/Q384; host or cells: HEK-293; details: ratio PoC (off-target)/PoC (MKK4)
Experimental: as §1, §2, §3, §4, §5
Target sequence in this assay (P45983 1-384 isoform P45983-2): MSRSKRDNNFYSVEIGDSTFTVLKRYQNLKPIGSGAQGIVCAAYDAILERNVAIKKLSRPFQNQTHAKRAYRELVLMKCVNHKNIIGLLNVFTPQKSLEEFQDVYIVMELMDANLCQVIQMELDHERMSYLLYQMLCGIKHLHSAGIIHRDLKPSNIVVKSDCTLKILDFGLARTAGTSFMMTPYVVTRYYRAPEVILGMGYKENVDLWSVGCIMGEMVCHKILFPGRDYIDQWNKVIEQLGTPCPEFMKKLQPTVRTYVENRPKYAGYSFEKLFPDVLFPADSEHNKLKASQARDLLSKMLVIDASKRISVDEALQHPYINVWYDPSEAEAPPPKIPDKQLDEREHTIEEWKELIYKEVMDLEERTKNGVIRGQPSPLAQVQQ

[6] = target: T4, BRaf (Homo sapiens, UniProt P15056); assay: KINOMEscan competition binding assay, BRaf; details: ratio PoC (off-target)/PoC (MKK4)
T4 construct: purchased ProQinase GmbH, Freiburg, Germany (33PanQinase Assay Service)
Experimental: as §1, §2, §3, §4, §5

[7] = target: T5, MKK4 (Homo sapiens, UniProt P45985); assay: 33PanQinase enzyme assay, MKK4; format: biochemical; details: for pIC50: assay 'IC50', read-out: Potency MKK4 (IC50); for remaining activity at 0.1 µM: read-out: Potency MKK4 (residual activity, assay at single concentration)
T5 construct: purchased ProQinase GmbH, Freiburg, Germany (33PanQinase Assay Service)
T5 sequence (P45985 1-399): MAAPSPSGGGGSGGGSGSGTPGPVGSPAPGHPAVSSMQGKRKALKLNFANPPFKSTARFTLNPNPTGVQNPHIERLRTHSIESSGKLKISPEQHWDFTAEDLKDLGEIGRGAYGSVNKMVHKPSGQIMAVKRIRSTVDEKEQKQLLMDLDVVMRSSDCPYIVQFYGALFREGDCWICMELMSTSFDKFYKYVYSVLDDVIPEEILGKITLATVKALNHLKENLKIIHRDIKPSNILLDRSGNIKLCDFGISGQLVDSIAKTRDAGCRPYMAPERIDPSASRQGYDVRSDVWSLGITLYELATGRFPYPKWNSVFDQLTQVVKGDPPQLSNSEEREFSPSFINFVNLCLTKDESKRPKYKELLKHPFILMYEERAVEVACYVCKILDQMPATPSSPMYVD
How it was run: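 Radiometric 33PanQinase assay: kinase, substrate, ATP and compound in standard buffer, 60 min at 30 °C; 33Pi incorporation read by scintillation counting.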

T4 sequence (P15056 whole entry, species assumed): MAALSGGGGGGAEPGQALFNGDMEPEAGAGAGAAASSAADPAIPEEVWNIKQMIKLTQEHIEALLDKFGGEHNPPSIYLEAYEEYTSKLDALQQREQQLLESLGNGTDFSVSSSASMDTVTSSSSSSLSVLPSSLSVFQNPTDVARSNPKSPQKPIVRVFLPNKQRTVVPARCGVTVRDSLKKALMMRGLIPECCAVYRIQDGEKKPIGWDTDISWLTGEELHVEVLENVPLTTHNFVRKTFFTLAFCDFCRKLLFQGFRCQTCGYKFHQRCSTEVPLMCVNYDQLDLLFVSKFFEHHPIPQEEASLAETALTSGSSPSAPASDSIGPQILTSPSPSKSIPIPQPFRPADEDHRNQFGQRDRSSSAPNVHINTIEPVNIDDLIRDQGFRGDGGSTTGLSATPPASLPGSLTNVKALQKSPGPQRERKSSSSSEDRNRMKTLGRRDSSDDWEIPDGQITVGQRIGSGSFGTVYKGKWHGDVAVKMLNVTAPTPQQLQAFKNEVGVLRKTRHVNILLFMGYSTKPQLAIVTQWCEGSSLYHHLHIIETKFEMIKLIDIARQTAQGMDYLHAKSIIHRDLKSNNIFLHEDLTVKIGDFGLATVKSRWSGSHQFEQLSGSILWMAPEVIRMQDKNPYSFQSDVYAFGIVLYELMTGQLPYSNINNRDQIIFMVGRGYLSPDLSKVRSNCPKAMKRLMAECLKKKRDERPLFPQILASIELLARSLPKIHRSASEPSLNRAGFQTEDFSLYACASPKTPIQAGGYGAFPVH

SMILES	MKK4 [% Ctrl @ 100 nM [1]	selectivity based on % Ctrl @100 nM vs. MKK7 [2]	Selectivity JNK1, IC50(off-target)/IC50(MKK4) [3]	Selectivity IVIKK7, IC50(off-target)/IC50(MKK4) [4]	selectivity based on % Ctrl @100 nM vs. JNK1 [5]	selectivity based on % Ctrl @100 nM vs. Braf [6]	pIC50 [7]	remaining activity at 0.1 µM ([7]; single concentration 100 nM) [%]	remaining activity at 0.1 µM [7] [%]
CCCS(=O)(=O)Nc1ccc(F)c(C(=O)c2c[nH]c3ncc(-c4nc[nH]n4)cc23)c1F [Example 85, N-(3-(5-(1H-1,2,4-triazol-3-yl)-1H-pyrrolo[2,3-b]pyridine-3-carbonyl)-2,4-difluorophenyl)propane-1-sulfonamide]	+ (3 ≤ PoC < 30)	++ (100 ≥ ratio > 10)	◯ (3 ≥ IC50(off-target)/IC50(MKK4))	++ (100 ≥ IC50(off-target)/IC50(MKK4) > 10)	++ (100 ≥ ratio > 10)	◯ (3 ≥ Ratio)	5.00 to 6.00	–	–
CCCS(=O)(=O)Nc1ccc(F)c(C(=O)c2c[nH]c3ncc(C4=CCNCC4)cc23)c1F [Example 242]	+ (3 ≤ PoC < 30)	+ (10 ≥ ratio > 3)	◯ (3 ≥ IC50(off-target)/IC50(MKK4))	++ (100 ≥ IC50(off-target)/IC50(MKK4) > 10)	+ (10 ≥ ratio > 3)	◯ (3 ≥ Ratio)	< 5.00	–	–
Cc1ccc(CS(=O)(=O)Nc2ccc(F)c(C(=O)c3c[nH]c4ncc(-c5ccc(Cl)cc5)cc34)c2F)cc1 [Example 38, N-(3-(5-(4-chlorophenyl)-1H-pyrrolo[2,3-b]pyridine-3-carbonyl)-2,4-difluoro-phenyl)-1-(p-tolyl)methanesulfonamide]	+ (3 ≤ PoC < 30)	+ (10 ≥ ratio > 3)	–	–	+ (10 ≥ ratio > 3)	+ (10 ≥ ratio > 3)	–	–	70 to 90
CCCS(=O)(=O)Nc1ccc(Br)c(C(=O)c2c[nH]c3ncc(-c4ccc(Cl)cc4)cc23)c1F [Example 60, N-(4-bromo-3-(5-(4-chlorophenyl)-1H-pyrrolo[2,3-b]pyridine-3-carbonyl)-2-fluorophenyl)propane-1-sulfonamide]	+ (3 ≤ PoC < 30)	++ (100 ≥ ratio > 10)	–	–	++ (100 ≥ ratio > 10)	++ (100 ≥ ratio > 10)	5.00 to 6.00	–	–
CCCS(=O)(=O)Nc1ccc(F)c(C(=O)c2c[nH]c3ncc(-c4ccc(F)cc4F)cc23)c1F [Example 33, N-(3-(5N-(2,4-difluorophenyl)-1H-pyrrolo[2,3-b]pyridine-3-carbonyl)-2,4-difluorophenyl)propane-1-sulfonamide]	+ (3 ≤ PoC < 30)	++ (100 ≥ ratio > 10)	–	–	++ (100 ≥ ratio > 10)	++ (100 ≥ ratio > 10)	–	70 to 90	–

Second part, led by results:

MKK4 [% Ctrl @ 100 nM [1]	selectivity based on % Ctrl @100 nM vs. MKK7 [2]	Selectivity JNK1, IC50(off-target)/IC50(MKK4) [3]	Selectivity IVIKK7, IC50(off-target)/IC50(MKK4) [4]	selectivity based on % Ctrl @100 nM vs. JNK1 [5]	selectivity based on % Ctrl @100 nM vs. Braf [6]	pIC50 [7]	remaining activity at 0.1 µM ([7]; single concentration 100 nM) [%]	SMILES	remaining activity at 0.1 µM [7] [%]
+++ (PoC < 1)	+++ (Ratio > 100)	◯ (3 ≥ IC50(off-target)/IC50(MKK4))	++·	+++ (Ratio > 100)	◯ (3 ≥ Ratio)	6.00 to 7.00	–	CCCS(=O)(=O)Nc1ccc(F)c(C(=O)c2c[nH]c3ncc(-c4cnc[nH]4)cc23)c1F [Example 83, N-(3-(5-(1H-imidazol-5-yl)-1H-pyrrolo[2,3-b]pyridine-3-carbonyl)-2,4-difluorophenyl)propane-1-sulfonamide]	–
◯ (30 ≤ PoC)	◯ (3 ≥ Ratio)	◯ (3 ≥ IC50(off-target)/IC50(MKK4))	◯ (3 ≥ IC50(off-target)/IC50(MKK4))	◯ (3 ≥ Ratio)	◯ (3 ≥ Ratio)	< 5.00	–	CCCS(=O)(=O)Nc1ccc(F)c(C(=O)c2c[nH]c3ncc(-c4csc(SC)n4)cc23)c1F [Example 87, N-(2,4-difluoro-3-(5-(2-(methylthio)thiazol-4-yl)-1H-pyrrolo[2,3-b]pyridine-3-carbonyl)phenyl)propane-1-sulfonamide]	–
+++ (PoC < 1)	+++ (Ratio > 100)	+++ (IC50(off-target)/IC50(MKK4) > 100)	+++ (IC50(off-target)/IC50(MKK4) > 100)	+++ (Ratio > 100)	+++ (Ratio > 100)	> 7.00	–	CNc1ncc(-c2cnc3[nH]cc(C(=O)c4ccc(F)c(NS(=O)(=O)CCC(F)(F)F)c4F)c3c2)cn1 [Example 177, N-(2,6-difluoro-3-(5-(2-(methylamino)pyrimidin-5-yl)-1H-pyrrolo[2,3-b]pyridine-3-carbonyl)phenyl)-3,3,3-trifluoropropane-1-sulfonamide]	–
+++ (PoC < 1)	+++ (Ratio > 100)	◯ (3 ≥ IC50(off-target)/IC50(MKK4))	+++ (IC50(off-target)/IC50(MKK4) > 100)	+++ (Ratio > 100)	◯ (3 ≥ Ratio)	6.00 to 7.00	–	CCCS(=O)(=O)Nc1ccc(F)c(C(=O)c2c[nH]c3ncc(-c4ccn[nH]4)cc23)c1F [Example 84, N-(3-(5-(1H-pyrazol-5-yl)-1H-pyrrolo[2,3-b]pyridine-3-carbonyl)-2,4-difluorophenyl)propane-1-sulfonamide]	–
◯ (30 ≤ PoC)	◯ (3 ≥ Ratio)	–	–	◯ (3 ≥ Ratio)	◯ (3 ≥ Ratio)	–	> 90	O=C(c1c(F)ccc(NS(=O)(=O)CCCO)c1F)c1c[nH]c2ncc(-c3ccc(Cl)cc3)cc12 [Example 67, N-(3-(5-(4-chlorophenyl)-1H-pyrrolo[2,3-b]pyridine-3-carbonyl)-2,4-difluorophenyl)-3-hydroxypropane-1-sulfonamide]	–
